Reference: PMC11245370, “3-Position Biaryl Endochin-like Quinolones with Enhanced Antimalarial Performance” (ACS Infectious Diseases, 2024)

Tests used:
[1] = system: P. yoelii blood-stage infection; details: mice, oral gavage days 1-4, followed to day 30
Experimental: (§1) On day 5, a drop of blood was taken from the tail, and a blood smear was prepared, fixed with methanol, and stained with Giemsa. The operator then examined the stained smear microscopically to determine percent parasitemia. […] In this model, animals were inoculated exactly as for the 4 day test on day 0; however, drug was administered only on day 1, whereas smears were made on day 5 and again weekly thereafter for animals that remained aparasitemic. Animals that remained aparasitemic on day 30 were scored as cures.
The P. yoelii 4 day test monitors suppression of patent infection in female CF1 mice. The test began with the inoculation (iv) of parasitized erythrocytes (3.5 × 10^4P. yoelli) (from a donor animal) on the first day of the experiment (D0). […] Initially, the 3-biaryl-ELQs were tested at doses of 0.0025, 0.005, 0.01, 0.03, 0.1, 0.3, 1.0, and 10 mg/kg/day, including a vehicle-only (PEG400) control. After completion of drug treatment, a blood sample was collected (by pricking the tail vein) for determination of parasite burden beginning on the day after the final dose (D5). Percent parasitemia was assessed by direct microscopic analysis of Giemsa-stained blood smears. […] Animals with observable parasitemia following the experiment were euthanized; animals cleared of parasites from the bloodstream were observed daily with assessment of parasitemia performed weekly until day 30, at which point the animals were scored as cured of infection. […] Nonlinear regression analysis was used for objective determination of ED50’s and ED90’s from the accumulated data as well as the nonrecrudescence dose (NRD). The 4 day test protocol was reviewed and approved by the local IACUC board at the Portland VA Medical Center. Experiments were performed with four mice per group to ensure statistical accuracy.

[2] = system: P. yoelii blood-stage infection; experiment: Single-dose cure of blood-stage murine malaria; format: in vivo, Plasmodium yoelii; details: lowest single oral dose curing all four mice, day 30
Experimental: as §1
The effectiveness of selected 3-biaryl ELQs and prodrugs was assessed vs the blood-stage infection for single-dose cures. Mice were infected iv with 3.5 × 10^4P. yoelii infected RBCs as described for the 4 day test above. Drug administration occurred on the day after inoculation (day 1). Test agents were dissolved in PEG-400 and administered ig once. On the fifth day, blood films were prepared, and % parasitemia was assessed. Animals remaining parasite-free for 30 days after drug administration were considered cured. The initial dosing range was 0.25, 0.5, 1, 3, and 10 mg/kg, including a control. Experiments were performed with four mice per group to ensure statistical accuracy. The reported parameter for these studies is the lowest single dose that provides a cure to all four animals in the group.

[3] = system: P. falciparum multidrug-resistant Dd2 strain; experiment: microbe, parasite or virus in culture; format: cell-based; details: Plasmodium falciparum, DD2, 72 h, read-out: P. falciparum IC50 values, Dd2
Experimental: (§2) All of this information is stored in a database with information relating to chemical structure, physical chemical properties, cross resistance patterns, mammalian cell cytotoxicity, enzyme inhibitor profiles, and synthesis details. Pharmacological data and in vivo efficacy data are also stored in the database for molecules of particular interest. […] We synthesized the compound in an initial batch size of about 800 mg as described above. […] Fluorescence readings were captured with a fluorescence plate reader and processed by nonlinear regression analysis using the GraphPad Prism software to provide IC50 values for each determination. Stock solutions were freshly prepared daily in DMSO in glass vials.
(§3) Laboratory strains of P. falciparum were cultured in human erythrocytes by standard methods. The parasites were grown in culture medium with fresh human erythrocytes maintained at 2% hematocrit at 37 °C in low-oxygen conditions (5% O2, 5% CO2, 90% N2). […] Cultures were maintained at less than 10% parasitemia by transfer of infected cells to fresh erythrocytes and culture medium every 3 or 4 days.
(§4) SYBR green I assay. In vitro antiplasmodial activity was assessed using a published SYBR Green I fluorescence-based method.[20] The drugs were added to 96-well plates using twofold serial dilutions in complete medium. […] Asynchronous P. falciparum parasites were diluted with uninfected erythrocytes and added to the wells to give a final culture volume of 100 μL at 2% hematocrit and 0.2% parasitemia. […] The parasites were then lysed by adding 100 μL of SYBR green I lysis buffer containing 0.2 μL/ml SYBR green I dye (10,000×) in 20 mM Tris (pH 7.5), 5 mM EDTA, 0.008% (wt/vol) saponin, and 0.08% (v/v) Triton X-100. The plates were incubated at room temperature for an hour in the dark. […] If the IC50 value fell outside of the initially tested range, then the range was adjusted up or down, and the assay was repeated twice.

[4] = system: P. falciparum atovaquone-resistant clinical isolate Tm90-C2B; experiment: SYBR Green I antiplasmodial assay, Tm90-C2B; format: cell-based; details: Plasmodium falciparum, TM90, 72 h, read-out: P. falciparum IC50 values, Tm90-C2B
Experimental: as §2, §3, §4

[5] = HepG2 cytotoxicity / mitochondrial toxicity (TiterGlo ATP, galactose medium); details: human
Experimental: HepG2 was routinely cultured in DMEM containing 10% fetal calf serum and 100 IU/mL penicillin and 100 μg/mL streptomycin (complete medium). For studies to investigate the potential for mitochondrial toxicity by selected 3-biaryl-ELQs, the medium contained galactose rather than glucose to force the cells to produce ATP through oxidative phosphorylation, which in turn makes them sensitive to mitochondrial toxicants.[36] […] After this period, the culture medium was removed, and the cells were shifted to galactose-containing medium with test drugs at concentrations ranging from 0 to 10 μM. Drug dilutions were prepared from DMSO stocks into galactose-containing medium. […] After incubation, the contents of each well were removed, and 25 μL of TiterGlo II reagent mix containing luciferase, detergent, and luciferin was added to each well along with 25 μL of culture medium. […] At this point, the plates were read on a luminometer (SpectraMax iD3 iD5Multi-Mode Microplate Reader), and the data were processed to yield the percent decrease in ATP production relative to no-drug control values. These values reflect the potential damage caused by mitochondrial toxicants due to reduced intracellular ATP levels caused by interference with the human mitochondrial electron transport chain. Assays were set up in triplicate.

[6] = system: P. falciparum ELQ-300-resistant D1 clone; experiment: microbe, parasite or virus in culture; format: cell-based; details: Plasmodium falciparum, 72 h, read-out: P. falciparum IC50 values, D1
[7] = system: P. falciparum drug-sensitive D6 strain; experiment: SYBR Green I antiplasmodial assay, D6 strain; format: cell-based; details: Plasmodium falciparum, D6, 72 h, read-out: P. falciparum IC50 values, D6
Experimental: as §2, §3, §4

Compound	blood stage in vivo efficacy, 4 day Peters test results, NRD (nonrecrudescence dose) [1] [mg/kg/day]	blood stage in vivo efficacy, single dose cure [2] [mg/kg/day]	IC50 [3] [nM]	IC50 [4] [nM]	IC50 at 24 h [5] [nM]	IC50 [6] [nM]	IC50 [7] [nM]	IC50 at 24 h ([5]; HepG2 cells) [nM]
CCN(CC)CCCC(C)Nc1ccnc2cc(Cl)ccc12 (centres unmarked) [CQ]	>64	>64						
Cc1[nH]c2cc(F)cc(F)c2c(=O)c1-c1ccc(Oc2ccc(OC(F)(F)F)cc2)cc1 [ELQ-400, reference compound]			0.44	19.3	10000	0.73	0.19	
COc1cc2[nH]c(C)c(-c3ccc(-c4ccc(OC(F)F)cc4)cc3)c(=O)c2cc1Cl [ELQ-600, 6-Chloro-3-(4′-(difluoromethoxy)-[1,1′-biphenyl]-4-yl)-7-methoxy-2-methylquinolin-4(1H)-one]			13.4	5.9		> 250	3.9	> 10000
Cc1[nH]c2cc(F)cc(F)c2c(=O)c1-c1ccc(-c2ccc(OC(F)(F)F)cc2)cc1 [ELQ-601, 5,7-Difluoro-2-methyl-3-(4′-(trifluoromethoxy)-[1,1′-biphenyl]-4-yl)quinolin-4(1H)-one]			14.3	24.5		9.3	5.9	
COc1cc2[nH]c(C)c(-c3ccc(-c4ccc(C#N)cc4)cc3)c(=O)c2cc1Cl [ELQ-602, 4′-(6-Chloro-7-methoxy-2-methyl-4-oxo-1,4-dihydroquinolin-3-yl)-[1,1′-biphenyl]-4-carbonitrile]			25.2	10.9		> 250	4.8	
COc1cc2[nH]c(C)c(-c3ccc(-c4ccc(C)cc4)cc3)c(=O)c2cc1Cl [ELQ-603, 6-Chloro-7-methoxy-2-methyl-3-(4′-methyl-[1,1′-biphenyl]-4-yl)quinolin-4(1H)-one]			3.8	1.5		> 250	1	
COc1cc2[nH]c(C)c(-c3ccc(-c4cccc(OC(F)(F)F)c4)cc3)c(=O)c2cc1Cl [ELQ-604, 6-Chloro-7-methoxy-2-methyl-3-(3′-(trifluoromethoxy)-[1,1′-biphenyl]-4-yl)quinolin-4(1H)-one]			0.5	0.5		> 250	0.6	> 10000
COc1cc2[nH]c(C)c(-c3ccc(-c4ccc(Cl)cc4)cc3)c(=O)c2cc1Cl [ELQ-637, 6-Chloro-3-(4′-chloro-[1,1′-biphenyl]-4-yl)-7-methoxy-2-methylquinolin-4(1H)-one]			7.1	3		> 250	3.4	> 10000
COc1ccc(-c2ccc(-c3c(C)[nH]c4cc(OC)c(Cl)cc4c3=O)cc2)cc1 [ELQ-645, 6-Chloro-7-methoxy-3-(4′-methoxy-[1,1′-biphenyl]-4-yl)-2-methylquinolin-4(1H)-one]			10.2	6		> 250	5	
COc1cc2[nH]c(C)c(-c3ccc(-c4cccc(C(F)(F)F)c4)cc3)c(=O)c2cc1Cl [ELQ-646, 6-Chloro-7-methoxy-2-methyl-3-(3′-(trifluoromethyl)-[1,1′-biphenyl]-4-yl)quinolin-4(1H)-one]			2.7	1		> 250	1.1	> 10000
COc1cc2[nH]c(C)c(-c3ccc(-c4ccc(C(F)(F)F)cc4)cc3)c(=O)c2cc1Cl [ELQ-647, 6-Chloro-7-methoxy-2-methyl-3-(4′-(trifluoromethyl)-[1,1′-biphenyl]-4-yl)quinolin-4(1H)-one]			7.8	3.5		> 250	3.5	> 10000
Cc1[nH]c2ccccc2c(=O)c1-c1ccc(-c2ccc(OC(F)(F)F)cc2)cc1 [ELQ-649, 2-Methyl-3-(4′-(trifluoromethoxy)-[1,1′-biphenyl]-4-yl)quinolin-4(1H)-one]			8.3	6		15.8	7.9	
COc1cc2[nH]c(C)c(-c3ccc(-c4ccc(OC(F)(F)F)cc4)cc3)c(=O)c2cc1F [ELQ-650, 6-Fluoro-7-methoxy-2-methyl-3-(4′-(trifluoromethoxy)-[1,1′-biphenyl]-4-yl)quinolin-4(1H)-one]			1.1	0.4		14	0.8	> 10000
COc1cc2[nH]c(C)c(-c3ccc(-c4ccc(C(C)(C)C)cc4)cc3)c(=O)c2cc1Cl [ELQ-651, 3-(4′-(tert-Butyl)-[1,1′-biphenyl]-4-yl)-6-chloro-7-methoxy-2-methylquinolin-4(1H)-one]			1.4	0.49		> 250	1.1	
COc1cc2[nH]c(C)c(-c3ccc(-c4ccc(Oc5ccc(OC(F)(F)F)cc5)cc4)cc3)c(=O)c2cc1Cl [ELQ-653, 6-Chloro-7-methoxy-2-methyl-3-(4′-(4-(trifluoromethoxy)phenoxy)-[1,1′-biphenyl]-4-yl)quinolin-4(1H)-one]			1.4	0.88		> 250	1.5	
COc1cc2[nH]c(C)c(-c3ccc(-c4ccc(C(F)F)cc4)cc3)c(=O)c2cc1Cl [ELQ-659, 6-Chloro-3-(4′-(difluoromethyl)-[1,1′-biphenyl]-4-yl)-7-methoxy-2-methylquinolin-4(1H)-one]			1.8	0.57		> 250	1.8	> 10000
Cc1[nH]c2c(c(=O)c1-c1ccc(-c3ccc(OC(F)(F)F)cc3)cc1)CCCC2 [ELQ-660]			12.8	7.9		22.2	14.8	
COc1cc2[nH]c(C)c(-c3ccc(-c4cccc(S(F)(F)(F)(F)F)c4)cc3)c(=O)c2cc1Cl [ELQ-662, 6-Chloro-7-methoxy-2-methyl-3-(3′-(pentafluorosulfanyl)-[1,1′-biphenyl]-4-yl)quinolin-4(1H)-one]			1.3	1.4		> 250	0.7	
COc1cc2[nH]c(C)c(-c3ccc(-c4ccc(S(F)(F)(F)(F)F)cc4)cc3)c(=O)c2cc1Cl [ELQ-663, 6-Chloro-7-methoxy-2-methyl-3-(4′-(pentafluorosulfanyl)-[1,1′-biphenyl]-4-yl)quinolin-4(1H)-one]			3.2	3.8		> 250	1.6	
C=C(C)[C@H]1Cc2c(ccc3c2O[C@@H]2COc4cc(OC)c(OC)cc4[C@@H]2C3=O)O1 [rotenone, reference compound]					< 1000			
